Values after ≈ are worked out from the molar mass of the structure shown.
What was measured:
Assay in all cases: MIC, CLSI broth microdilution
Format in all cases: cell-based
[1] = tested on: Klebsiella pneumoniae KPC-2; settings: KPC2
Description: (§1) Gram-negative and Gram-positive bacterial strains used during the in vitro minimum inhibitory concentration (MIC) determination were obtained either from the American Type Culture Collection (ATCC) or from clinical specimens. All strains were characterized genotypically and the respective antibiotic resistance markers for each strain were identified.
(§2) Isolates were sub-cultured onto appropriate media and stocked in skim milk at −80° C. Following two subcultures from frozen stock, in vitro antimicrobial susceptibility testing was performed using the Clinical and Laboratory Standards Institute (CLSI) broth microdilution method. Briefly, fresh cultures were suspended in culture media to give a final stock inoculum size of 5×10^7 colony forming units per milliliter of broth (CFU/mL). […] 100 μL of the stock solutions were added to the first wells in a 96-well plate and were then diluted using a 2-fold dilution method to give a range of 32-0.025 μg/mL. 100 μL of the bacterial suspensions were then added to the 96-well plates to give a final working inoculum size of 5×10^5 CFU/mL. The final compound concentration range was 16-0.0125 μg/mL. […] MICs for comparator agents were determined using custom-designed, in-house prepared 96-well broth microdilution panels.

Escherichia coli SHV-12 = settings: SHV12
Description: as §1, §2

[2] = tested on: Enterobacter cloacae species complex NDM-1
Description: as §1, §2

[3] = tested on: Escherichia coli pSMART_Cfreundii_AmpC
Description: as §1, §2

[4] = tested on: Pseudomonas aeruginosa ATCC 27853; settings: ATCC27853
Description: as §1, §2

[5] = tested on: Klebsiella pneumoniae OXA-163, OXA-1_OXA-30, SHV-1, TEM-1
Description: as §1, §2

[6] = tested on: Klebsiella pneumoniae OXA-48, SHV-1
Description: as §1, §2

[7] = tested on: Serratia marcescens AmpC overexpressed
Description: as §1, §2

[8] = tested on: Klebsiella oxytoca KPC-2, TEM-1; settings: KPC-2, TEM-1, read-out: MIC
Description: as §1, §2

[9] = tested on: Klebsiella pneumoniae KPC-3; settings: KPC3, KPC-3, read-out: MIC
Description: as §1, §2

Escherichia coli CMY-2 = settings: CMY2
Description: as §1, §2

[10] = tested on: Citrobacter freundii species complex OXA-181; settings: Citrobacter freundii species complex, OXA-181; read-out: MIC
Description: as §1, §2

[11] = tested on: Serratia marcescens SME-2; settings: SME2
Description: as §1, §2

[12] = tested on: Pseudomonas aeruginosa OprD negative
Description: as §1, §2

[13] = tested on: Escherichia coli pSMART_Ecloacae_AmpC
Description: as §1, §2

[14] = tested on: Acinetobacter baumannii ATCC 19606; settings: ATCC19606
Description: as §1, §2

[15] = tested on: Klebsiella pneumoniae SHV-12; settings: SHV12, SHV-12, read-out: MIC
Description: as §1, §2

[16] = tested on: Escherichia coli Empty pSMART plasmid
Description: as §1, §2

[17] = tested on: Klebsiella aerogenes VIM-1, SHV-12
Description: as §1, §2

[18] = tested on: Escherichia coli CTX-M-15; settings: CTXM15
Description: as §1, §2

[19] = tested on: Escherichia coli Isogenic TEM-26
Description: as §1, §2

[20] = tested on: Escherichia coli ATCC 25922; settings: ATCC25922
Description: as §1, §2

[21] = tested on: Escherichia coli Isogenic TEM-10
Description: as §1, §2

[22] = tested on: Pseudomonas aeruginosa AmpC overexpressed
Description: as §1, §2

SMILES	MIC [1]	MIC (Escherichia coli SHV-12)	MIC [2]	MIC [3]	MIC [4]	MIC [5]	MIC [6]	MIC [7]	MIC [8]	MIC [9]	MIC (Escherichia coli CMY-2)	MIC [10]	MIC [11]	MIC [12]	MIC [13]	MIC [14]	MIC [15]	MIC [16]	MIC [17]	MIC [18]	also measured
CC(C)(O/N=C(\C(=O)N[C@H]1CON(C2(C(=O)O)C[C@H](N3Cc4cc(O)c(O)cc4C3=O)C(=O)O2)C1=O)c1csc(N)n1)C(=O)O (stereo partly drawn) [Cmpd 35, (4S)-2-[(4S)-4-{[(2Z)-2-(2-amino-1,3-thiazol-4-yl)-2-{[(2-carboxypropan-2-yl)oxy]imino}acetyl]amino}-3-oxo-1,2-oxazolidin-2-yl]-4-(5,6-dihydroxy-1-oxo-1,3-dihydro-2H-isoindol-2-yl)-5-oxooxolane-2-carboxylic acid]	0.12 µg/mL (≈ 0.185 µM)	1 µg/mL (≈ 1.54 µM)	1 µg/mL (≈ 1.54 µM)	0.5 µg/mL (≈ 0.771 µM)	0.5 µg/mL (≈ 0.771 µM)	0.5 µg/mL (≈ 0.771 µM)	0.03 µg/mL (≈ 0.0463 µM)	0.5 µg/mL (≈ 0.771 µM)	0.0149 µg/mL (≈ 0.023 µM)	0.25 µg/mL (≈ 0.385 µM)	8 µg/mL (≈ 12.3 µM)	0.25 µg/mL (≈ 0.385 µM)	0.25 µg/mL (≈ 0.385 µM)	0.5 µg/mL (≈ 0.771 µM)	0.25 µg/mL (≈ 0.385 µM)	0.25 µg/mL (≈ 0.385 µM)	0.06 µg/mL (≈ 0.0925 µM)	0.06 µg/mL (≈ 0.0925 µM)	1 µg/mL (≈ 1.54 µM)	1 µg/mL (≈ 1.54 µM)	MIC [19]: 0.12 µg/mL (≈ 0.185 µM); MIC [20]: 0.5 µg/mL (≈ 0.771 µM); MIC [21]: 0.06 µg/mL (≈ 0.0925 µM); MIC [22]: 2 µg/mL (≈ 3.08 µM)
Nc1nc(/C(=N/OC(CO)(CCl)C(=O)O)C(=O)N[C@H]2CON(C3(C(=O)O)C[C@H](N4C(=O)c5cc(O)c(O)cc5C4=O)C(=O)O3)C2=O)cs1 (stereo partly drawn) [Cmpd 6, (4S)-2-[(4S)-4-{[(2Z)-2-(2-amino-1,3-thiazol-4-yl)-2-{[(2-carboxy-1-chloro-3-hydroxypropan-2-yl)oxy]imino}acetyl]amino}-3-oxo-1,2-oxazolidin-2-yl]-4-(5,6-dihydroxy-1,3-dioxo-1,3-dihydro-2H-isoindol-2-yl)-5-oxooxolane-2-carboxylic acid]	0.03 µg/mL (≈ 0.0421 µM)	1 µg/mL (≈ 1.4 µM)	0.25 µg/mL (≈ 0.351 µM)	0.06 µg/mL (≈ 0.0842 µM)	0.25 µg/mL (≈ 0.351 µM)	0.03 µg/mL (≈ 0.0421 µM)	≤ 0.015 µg/mL	0.12 µg/mL (≈ 0.168 µM)	≤ 0.015 µg/mL	0.03 µg/mL (≈ 0.0421 µM)	1 µg/mL (≈ 1.4 µM)	≤ 0.015 µg/mL	0.06 µg/mL (≈ 0.0842 µM)	2 µg/mL (≈ 2.81 µM)	0.06 µg/mL (≈ 0.0842 µM)	0.12 µg/mL (≈ 0.168 µM)	≤ 0.015 µg/mL	≤ 0.015 µg/mL	0.5 µg/mL (≈ 0.701 µM)	2 µg/mL (≈ 2.81 µM)	MIC [19]: ≤ 0.015 µg/mL; MIC [20]: 0.12 µg/mL (≈ 0.168 µM); MIC [21]: ≤ 0.015 µg/mL; MIC [22]: 1 µg/mL (≈ 1.4 µM)
